Reference: US20260028336A1 (Arcus Biosciences, Inc., priority 2022, published 2026)

biological target: T1, Cbl-b (Homo sapiens, UniProt Q13191); assay: Cbl-b probe displacement HTRF binding assay; conditions: 0.4 nM biotinylated Cbl-b, 150 nM BODIPY probe
T1 construct: biotin (biotinylated)
Experimental: The affinity with which compounds of the present dislcosure bind to Cbl-b was assessed using probe displacement homologous time resolved fluorescence (HTRF) assays. […] The assays were performed in assay buffer consisting of 20 mM Hepes, 150 mM NaCl, 0.01% Triton X-100, 0.5 mM TCEP, 0.01% BSA. On the day of the assay, a 20 point, 1:2 master serial dilution of each compound was prepared in DMSO to span a final concentration range of […] to 0 nM. Two hundred nanoliters of diluted compound was added to each well of a 384-well plate. Fifteen microliters of biotinylated-Cbl-b resuspended in assay buffer were added to each well and the plate incubated for 60 minutes at room temperature prior to addition of 5 μL of BODIPY™ probe in assay buffer. […] After a further 15 minutes of incubation at room temperature, 5 μl of Streptavidin-Terbium cryptate reagent at 5-fold final concentration was added to each well of the 384-well plate. Binding of a probe to Cbl-b results in an increase of HTRF signal. […] Percentage maximum activity in each test well was calculated based on DMSO (maximum activity, 0% displacement) and no protein control wells (baseline activity, 100% displacement). Binding affinity was determined from a dose response curve fitted using a standard four parameter fit equation.

T1 sequence (Q13191 whole entry, species assumed): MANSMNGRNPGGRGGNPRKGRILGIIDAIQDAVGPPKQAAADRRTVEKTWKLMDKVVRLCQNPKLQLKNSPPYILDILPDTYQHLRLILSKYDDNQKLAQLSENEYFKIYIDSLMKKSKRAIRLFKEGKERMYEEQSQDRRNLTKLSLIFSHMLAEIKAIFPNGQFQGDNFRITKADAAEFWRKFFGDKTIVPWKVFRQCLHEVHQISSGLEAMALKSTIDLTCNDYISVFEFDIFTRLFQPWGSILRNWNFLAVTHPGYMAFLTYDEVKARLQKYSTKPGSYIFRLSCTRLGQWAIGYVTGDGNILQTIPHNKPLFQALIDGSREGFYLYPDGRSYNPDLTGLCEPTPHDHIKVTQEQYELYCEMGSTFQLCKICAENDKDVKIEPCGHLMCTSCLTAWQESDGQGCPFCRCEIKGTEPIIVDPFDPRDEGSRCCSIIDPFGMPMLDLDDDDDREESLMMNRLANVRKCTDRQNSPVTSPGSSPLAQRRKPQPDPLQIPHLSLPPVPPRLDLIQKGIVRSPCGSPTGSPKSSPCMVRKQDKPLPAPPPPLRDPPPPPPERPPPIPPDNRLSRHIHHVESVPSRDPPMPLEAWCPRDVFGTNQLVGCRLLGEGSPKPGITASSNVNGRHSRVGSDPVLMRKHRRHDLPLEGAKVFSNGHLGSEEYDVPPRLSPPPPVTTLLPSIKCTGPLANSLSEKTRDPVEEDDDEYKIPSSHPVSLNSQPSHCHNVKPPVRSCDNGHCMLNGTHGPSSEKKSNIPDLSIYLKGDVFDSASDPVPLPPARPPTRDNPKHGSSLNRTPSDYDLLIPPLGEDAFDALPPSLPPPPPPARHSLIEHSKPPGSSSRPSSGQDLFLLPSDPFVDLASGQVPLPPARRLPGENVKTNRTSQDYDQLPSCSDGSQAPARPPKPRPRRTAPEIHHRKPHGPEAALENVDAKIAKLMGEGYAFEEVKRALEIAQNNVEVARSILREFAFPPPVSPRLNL

Row | Structure (SMILES) | IC50 [nM]
1 | CC1CC(c2cccc(-n3cc(C4CC4)c4ccsc4c3=O)c2)(c2nncn2C)C1 (stereo not shown) [Example 6, 4-cyclopropyl-6-{3-[3-methyl-1-(4-methyl-4H-1,2,4-triazol-3-yl)cyclobutyl]phenyl}-6H,7H-thieno[2,3-c]pyridin-7-one] | > 5000
2 | Cn1cnnc1[C@]1(c2cccc(-n3cc(C4CC4)c4c(S(C)(=O)=O)c[nH]c4c3=O)c2)C[C@@H](C)C1 (single isomer, unassigned) [Example 26, 4-Cyclopropyl-3-methanesulfonyl-6-{3-[(1s,3r)-3-methyl-1-(4-methyl-4H-1,2,4-triazol-3-yl)cyclobutyl]phenyl}-1H,6H,7H-pyrrolo[2,3-c]pyridin-7-one] | 100 to 1000
3 | CC1CC(c2cccc(-n3cc(C4CC4)c4c(CO)c[nH]c4c3=O)c2)(c2nncn2C)C1 (mixture of isomers) [Example 16, 4-Cyclopropyl-3-(hydroxymethyl)-6-{3-[3-methyl-1-(4-methyl-4H-1,2,4-triazol-3-yl)cyclobutyl]phenyl}-1H,6H,7H-pyrrolo[2,3-c]pyridin-7-one] | 100 to 1000
4 | CC1CC(c2cccc(-n3nc(C4CC4)c4cc[nH]c4c3=O)c2)(c2nncn2C)C1 (stereo not shown) [Example 116, 4-cyclopropyl-6-{3-[3-methyl-1-(4-methyl-4H-1,2,4-triazol-3-yl)cyclobutyl]phenyl}-1H,6H,7H-pyrrolo[2,3-d]pyridazin-7-one] | 1000 to 5000
5 | CC1CC(c2cccc(-n3cc(C(F)(F)F)c4c(C#N)c[nH]c4c3=O)c2)(c2nncn2C)C1 (mixture of isomers) [Example 136, 7-Oxo-6-{3-[(1R,3S)-3-methyl-1-(4-methyl-4H-1,2,4-triazol-3-yl)cyclobutyl]phenyl}-4-(trifluoromethyl)-1H,6H,7H-pyrrolo[2,3-c]pyridine-3-carbonitrile] | < 100
6 | CC1CC(c2cccc(-n3cc(C4CC4)c4cc(CN5CCCC6CC65)[nH]c4c3=O)c2)(c2nncn2C)C1 (stereo not shown) [Example 44, 2-({2-azabicyclo[4.1.0]heptan-2-yl}methyl)-4-cyclopropyl-6-{3-[3-methyl-1-(4-methyl-4H-1,2,4-triazol-3-yl)cyclobutyl]phenyl}-1H,6H,7H-pyrrolo[2,3-c]pyridin-7-one] | < 100
7 | CC1CC(c2cccc(-n3cc(C4CC4)c4cc(-c5cnn(C)c5)[nH]c4c3=O)c2)(c2nncn2C)C1 (mixture of isomers) [Example 32, 4-cyclopropyl-6-{3-[3-methyl-1-(4-methyl-4H-1,2,4-triazol-3-yl)cyclobutyl]phenyl}-2-(1-methyl-1H-pyrazol-4-yl)-1H,6H,7H-pyrrolo[2,3-c]pyridin-7-one] | 1000 to 5000
8 | Cn1cnnc1[C@]1(c2cccc(-n3cc(C4CC4)c4c(C(=O)O)c[nH]c4c3=O)c2)C[C@@H](C)C1 (single isomer, unassigned) [Example 20, 4-Cyclopropyl-7-oxo-6-{3-[(1s,3r)-3-methyl-1-(4-methyl-4H-1,2,4-triazol-3-yl)cyclobutyl]phenyl}-1H,6H,7H-pyrrolo[2,3-c]pyridine-3-carboxylic acid] | 1000 to 5000
9 | Cn1cnnc1[C@]1(c2cccc(-n3ccc4c(C#N)c[nH]c4c3=O)c2)C[C@@H](C)C1 (single isomer, unassigned) [Example 28, 7-Oxo-6-{3-[(1s,3r)-3-methyl-1-(4-methyl-4H-1,2,4-triazol-3-yl)cyclobutyl]phenyl}-1H,6H,7H-pyrrolo[2,3-c]pyridine-3-carbonitrile] | 100 to 1000
10 | CC(=O)c1c[nH]c2c(=O)n(-c3cccc([C@]4(c5nncn5C)C[C@H](C)C4)c3)cc(C3CC3)c12 (single isomer, unassigned) [Example 22, 3-Acetyl-4-cyclopropyl-6-{3-[(1s,3r)-3-methyl-1-(4-methyl-4H-1,2,4-triazol-3-yl)cyclobutyl]phenyl}-1H,6H,7H-pyrrolo[2,3-c]pyridin-7-one] | < 100
